These results are taken from ChEMBL document CHEMBL1148047, “Two steroidal alkaloids from a sponge, Corticium sp” (J Nat Prod, 1994).

In one test the test system is Candida albicans. In words: Antimicrobial activity against Candida albicans at 50 ug/disk. It is filed as functional. The note with it: read-out: IZ.
Test [1] has as its system Lymphocyte. Kind of test: Immunomodulatory activity against lymphocytes by mixed lymphocyte reaction method. It is filed as functional.
In another test the test system is A549. In words: Cytotoxicity against human A549 cells. It is filed as functional, cell-based.
The subject of the next test is Bacillus subtilis. In words: Antimicrobial activity against Bacillus subtilis at 50 ug/disk. The conditions noted are these: read-out: IZ. Format: functional.
The next test relates to HT-29. In words: Cytotoxicity against human HT-29 cells. Format: functional, cell-based.
Test [2] concerns Lymphocyte. In words: Immunomodulatory activity against lymphocytes by lymphocyte viability assay. Format: functional.
Another test has as its system P388. In words: Cytotoxicity against mouse P388 cells. It is filed as functional, cell-based.
In another test the test system is SK-MEL-28. In words: Cytotoxicity against human SK-MEL-28 cells. Format: functional, cell-based.
The subject of test [3] is Lymphocyte. In words: Ratio of immunomodulatory activity against lymphocytes by lymphocyte viability assay to immunomodulatory activity against lymphocytes by mixed lymphocyte reaction method. It is filed as functional.

Molecules are shown by their SMILES. Converted amounts (≈) assume the structure as drawn. Where only a bound is given, the exact number is not on record here.

What is called IC50 is the concentration that gives 50% inhibition. Low readings indicate greater potency in that assay, high ones weaker potency in that assay. As for `CC(=O)N[C@H]1CC[C@]2(C)[C@H]3CC[C@]4(C)[C@@H]([C@H](C)CC5=NCCC5=C(C)C)CC[C@H]4C3=CC[C@H]2[C@H]1O` [LOKYSTEROLAMINE B], the zone of inhibition at 50 µg/disc in the test with Candida albicans worked out at 0 mm; in the test on Bacillus subtilis, 8 mm. In addition, the figures for the Activity with Lymphocyte [1] and in the test on Lymphocyte [2] were 0.48 and more than 12.5, respectively. The IC50 in the test on A549 is 0.5 µg/mL (≈ 1.04 µM); with HT-29, 1 µg/mL (≈ 2.08 µM); in the test with P388, 1 µg/mL (≈ 2.08 µM); with SK-MEL-28, more than 2 µg/mL.

On to `CC(C)=C1CCN=C1C[C@@H](C)[C@H]1CC[C@H]2C3=CC[C@H]4[C@@H](O)[C@@H](N(C)C)CC[C@]4(C)[C@H]3CC[C@]12C` [LOKYSTEROLAMINE A], for which the zone of inhibition at 50 µg/disc stood at 11 mm with Candida albicans and 19 mm in the test on Bacillus subtilis. The Activity is reported as 0.13 with Lymphocyte [1] and more than 25 in the test with Lymphocyte [2]. In addition, the IC50 came out at 0.5 µg/mL (≈ 1.07 µM) with A549, 1 µg/mL (≈ 2.14 µM) with HT-29, 0.5 µg/mL (≈ 1.07 µM) with P388 and 5 µg/mL (≈ 10.7 µM) with SK-MEL-28. Also, the “Ratio IC50” value with Lymphocyte [3] was more than 187.
